From patent US9000022B2 (Exelixis Patent Company LLC, priority 2005, dated 2015)

system: LXRα and/or LXRβ; assay: Co-transfection assay (LXRE luciferase reporter, CV-1 cells); format: cell-based, human; settings: tested as described in Example 33; IC50 or EC50 for LXRα and/or LXRβ, isoform not specified; read-out: activity (IC50 or EC50 for LXR)
Outline: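 CV-1 cells transiently co-transfected with full-length human LXRα or LXRβ plus RXRα, an LXRE×1-Tk-luciferase reporter and a β-galactosidase control. Compounds incubated 20 h at 37 °C (≤1% DMSO; screen at 10 μM final); luciferase read after lysis. EC50/IC50 from 8-point half-log curves (4 wells per point, ≥3 experiments); efficacy relative to a reference agonist high control and DMSO.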

Row | Structure (SMILES) | IC50 or EC50 (potency, activation or inhibition)
1 | CC(C)(O)c1cn(Cc2cccc(Cl)c2Cl)c(-c2ccc(-c3cccc(S(C)(=O)=O)c3)cc2)n1 [Example 444, 2-(1-(2,3-dichlorobenzyl)-2-(3′-(methylsulfonyl)biphenyl-4-yl)-1H-imidazol-4-yl)propan-2-ol] | < 1000 nM
2 | CC(C)(O)c1nc(-c2ccc(-c3cccc(S(C)(=O)=O)c3)cc2Cl)n(-c2c(Cl)cccc2Cl)c1Cl [Example 445, 2-(5-chloro-2-(3-chloro-3′-(methylsulfonyl)biphenyl-4-yl)-1-(2,6-dichlorophenyl)-1H-imidazol-4-yl)propan-2-ol] | < 1000 nM
3 | CON(C)C(=O)c1ccc(-c2ccc(-n3cc(C(C)(C)O)nc3-c3c(F)cccc3Cl)c(Cl)c2)cc1S(C)(=O)=O [Example 448, 3′-chloro-4′-(2-(2-chloro-6-fluorophenyl)-4-(2-hydroxypropan-2-yl)-1H-imidazol-1-yl)-N-methoxy-N-methyl-3-(methylsulfonyl)biphenyl-4-carboxamide] | > 10000 nM
4 | CC(C)(O)c1cn(-c2ccc(-c3cccc(S(C)(=O)=O)c3)cc2F)c(Cc2cccc(Cl)c2Cl)n1 [Example 449, 2-(2-(2,3-dichlorobenzyl)-1-(3-fluoro-3′-(methylsulfonyl)biphenyl-4-yl)-1H-imidazol-4-yl)propan-2-ol] | < 1000 nM
5 | CCS(=O)(=O)c1cccc(-c2ccc(-n3cc(C(C)(C)O)nc3Cc3cccc(Cl)c3Cl)c(F)c2)c1 [Example 450, 2-(2-(2,3-dichlorobenzyl)-1-(3′-(ethylsulfonyl)-3-fluorobiphenyl-4-yl)-1H-imidazol-4-yl)propan-2-ol] | < 1000 nM
6 | CC(C)(O)c1cn(-c2ccc(-c3cccc(S(C)(=O)=O)c3)cc2Cl)c(C(C)(C)c2cccc(Cl)c2Cl)n1 [Example 451, 2-(1-(3-chloro-3′-(methyl-sulfonyl)biphenyl-4-yl)-2-(2-(2,3-dichlorophenyl)propan-2-yl)-1H-imidazol-4-yl)propan-2-ol] | < 1000 nM
7 | CCS(=O)(=O)c1cccc(-c2ccc(-n3cc(C(C)(C)O)nc3C(C)(C)c3cccc(Cl)c3Cl)c(Cl)c2)c1 [Example 452, 2-(1-(3-chloro-3′-(ethyl-sulfonyl)biphenyl-4-yl)-2-(2-(2,3-dichlorophenyl)propan-2-yl)-1H-imidazol-4-yl)propan-2-ol] | < 1000 nM
8 | CC(C)(O)c1cn(-c2ccc(-c3ccc(C(N)=O)c(S(C)(=O)=O)c3)cc2Cl)c(-c2c(F)cccc2Cl)n1 [Example 453] | 1000 to 10000 nM
9 | COc1ccc(-c2ccc(-n3cc(C(C)(C)O)nc3-c3c(F)cccc3Cl)c(Cl)c2)cc1S(C)(=O)=O [Example 454, 2-(1-(3-chloro-4′-methoxy-3′-(methylsulfonyl)biphenyl-4-yl)-2-(2-chloro-6-fluorophenyl)-1H-imidazol-4-yl)propan-2-ol] | 1000 to 10000 nM
10 | COc1ccc(-c2ccc(-n3cc(C(C)(C)O)nc3-c3cccc(Cl)c3Cl)cc2)cc1S(C)(=O)=O [Example 455, 2-(2-(2,3-dichlorophenyl)-1-(4′-methoxy-3′-(methylsulfonyl)biphenyl-4-yl)-1H-imidazol-4-yl)propan-2-ol] | < 1000 nM
11 | COc1ccc(-c2ccc(-n3cc(C(C)(C)O)nc3Cc3cccc(Cl)c3Cl)c(C)c2)cc1S(C)(=O)=O [Example 456, 2-(2-(2,3-dichlorobenzyl)-1-(4′-methoxy-3-methyl-3′-(methyl-sulfonyl)biphenyl-4-yl)-1H-imidazol-4-yl)propan-2-ol] | < 1000 nM
12 | COc1ccc(-c2ccc(-n3cc(C(C)(C)O)nc3Cc3cccc(Cl)c3Cl)c(Cl)c2)cc1S(C)(=O)=O [Example 457, 2-(1-(3-chloro-4′-methoxy-3′-(methyl-sulfonyl)biphenyl-4-yl)-2-(2,3-dichlorobenzyl)-1H-imidazol-4-yl)propan-2-ol] | < 1000 nM
13 | CC(C)(O)c1cn(-c2ccc(-c3cccc(S(C)(=O)=O)c3)cc2)c(-c2c(Cl)cccc2-c2cccc(S(C)(=O)=O)c2)n1 [Example 458, 2-(2-(3-chloro-3′-(methyl-sulfonyl)biphenyl-2-yl)-1-(3′-(methylsulfonyl)biphenyl-4-yl)-1H-imidazol-4-yl)propan-2-ol] | 1000 to 10000 nM
14 | CS(=O)(=O)c1cccc(-c2ccc(-n3cc(C(=O)NCC(F)(F)F)nc3-c3c(Cl)cccc3Cl)c(Cl)c2)c1 [Example 459, 1-(3-chloro-3′-(methyl-sulfonyl)biphenyl-4-yl)-2-(2,6-dichlorophenyl)-N-(2,2,2-trifluoro-ethyl)-1H-imidazole-4-carboxamide] | < 1000 nM
15 | CS(=O)(=O)c1cccc(-c2ccc(-n3cc(C(=O)NCCF)nc3-c3c(Cl)cccc3Cl)c(Cl)c2)c1 [Example 460, 1-(3-chloro-3′-(methyl-sulfonyl)biphenyl-4-yl)-2-(2,6-dichlorophenyl)-N-(2-fluoroethyl)-1H-imidazole-4-carboxamide] | < 1000 nM
16 | CS(=O)(=O)c1cccc(-c2ccc(-n3cc(C(=O)NCC(=O)O)nc3-c3c(Cl)cccc3Cl)c(Cl)c2)c1 [Example 461, 2-(1-(3-chloro-3′-(methyl-sulfonyl)biphenyl-4-yl)-2-(2,6-dichlorophenyl)-1H-imidazole-4-carboxamido)acetic acid] | > 10000 nM
17 | CCS(=O)(=O)c1cccc(-c2ccc(-n3cc(C(=O)NCC(F)(F)F)nc3-c3c(Cl)cccc3Cl)c(Cl)c2)c1 [Example 462, 1-(3-chloro-3′-(ethylsulfonyl)biphenyl-4-yl)-2-(2,6-dichlorophenyl)-N-(2,2,2-trifluoroethyl)-1H-imidazole-4-carboxamide] | < 1000 nM
18 | CC(C)(CO)NC(=O)c1cn(-c2ccc(-c3cccc(S(C)(=O)=O)c3)cc2Cl)c(-c2c(Cl)cccc2Cl)n1 [Example 463, 1-(3-chloro-3′-(methylsulfonyl)biphenyl-4-yl)-2-(2,6-dichlorophenyl)-N-(1-hydroxy-2-methylpropan-2-yl)-1H-imidazole-4-carboxamide] | < 1000 nM
19 | CCS(=O)(=O)c1cccc(-c2ccc(-n3cc(C(=O)NC(C)(C)CO)nc3-c3c(Cl)cccc3Cl)c(Cl)c2)c1 [Example 464, 1-(3-chloro-3′-(ethylsulfonyl)biphenyl-4-yl)-2-(2,6-dichlorophenyl)-N-(1-hydroxy-2-methylpropan-2-yl)-1H-imidazole-4-carboxamide] | < 1000 nM
20 | CC(C)(C)NC(=O)c1cn(-c2ccc(-c3cccc(S(C)(=O)=O)c3)cc2Cl)c(-c2c(Cl)cccc2Cl)n1 [Example 465, N-tert-butyl-1-(3-chloro-3′-(methylsulfonyl)biphenyl-4-yl)-2-(2,6-dichlorophenyl)-1H-imidazole-4-carboxamide] | < 1000 nM
21 | Cc1cc(-c2ccc(C(=O)O)cc2Cl)ccc1-n1cc(C(C)(C)O)nc1-c1c(Cl)cccc1Cl [Example 466, 2-chloro-4′-(2-(2,6-dichlorophenyl)-4-(2-hydroxypropan-2-yl)-1H-imidazol-1-yl)-3′-methylbiphenyl-4-carboxylic acid] | > 10000 nM
22 | CC(C)(O)c1cn(-c2ccc(-c3cc(S(C)(=O)=O)ccc3Cl)cc2Cl)c(-c2c(Cl)cccc2Cl)n1 [Example 467, 2-(1-(2′,3-dichloro-5′-(methyl-sulfonyl)biphenyl-4-yl)-2-(2,6-dichlorophenyl)-1H-imidazol-4-yl)propan-2-ol] | < 1000 nM
23 | Cc1cc(-c2cc(S(C)(=O)=O)ccc2Cl)ccc1-n1cc(C(C)(C)O)nc1Cc1cccc(Cl)c1Cl [Example 468, 2-(1-(2′-chloro-3-methyl-5′-(methylsulfonyl)biphenyl-4-yl)-2-(2,3-dichlorobenzyl)-1H-imidazol-4-yl)propan-2-ol] | < 1000 nM
24 | CC(C)(O)c1cn(-c2ccc(-c3ccc4c(c3)S(=O)(=O)CC4O)cc2Cl)c(-c2c(F)cccc2Cl)n1 (centres unmarked) [Example 469, 6-{3-chloro-4-[2-(2-chloro-6-fluorophenyl)-4-(1-hydroxy-1-methylethyl)-1H-imidazol-1-yl]phenyl}-2,3-dihydro-1-benzo-thiophene-3-ol 1,1-dioxide] | 1000 to 10000 nM
25 | CS(=O)(=O)c1cccc(-c2ccc(-n3cc(C(=O)NCCO)nc3-c3c(Cl)cccc3Cl)c(Cl)c2)c1 [Example 470, 1-(3-chloro-3′-(methylsulfonyl)biphenyl-4-yl)-2-(2,6-dichlorophenyl)-N-(2-hydroxyethyl)-1H-imidazole-4-carboxamide] | < 1000 nM
26 | CCS(=O)(=O)c1cccc(-c2ccc(-n3cc(C(=O)NCCO)nc3-c3c(Cl)cccc3Cl)c(Cl)c2)c1 [Example 471, 1-(3-chloro-3′-(ethylsulfonyl)biphenyl-4-yl)-2-(2,6-dichlorophenyl)-N-(2-hydroxyethyl)-1H-imidazole-4-carboxamide] | < 1000 nM
27 | CC(C)(O)CNC(=O)c1cn(-c2ccc(-c3cccc(S(C)(=O)=O)c3)cc2Cl)c(-c2c(Cl)cccc2Cl)n1 [Example 472, 1-(3-chloro-3′-(methylsulfonyl)biphenyl-4-yl)-2-(2,6-dichlorophenyl)-N-(2-hydroxy-2-methylpropyl)-1H-imidazole-4-carboxamide] | < 1000 nM
28 | CCS(=O)(=O)c1cccc(-c2ccc(-n3cc(C(=O)NCC(C)(C)O)nc3-c3c(Cl)cccc3Cl)c(Cl)c2)c1 [Example 473, 1-(3-chloro-3′-(ethylsulfonyl)biphenyl-4-yl)-2-(2,6-dichlorophenyl)-N-(2-hydroxy-2-methylpropyl)-1H-imidazole-4-carboxamide] | < 1000 nM
29 | CC(C)(O)c1cn(-c2ccc(-c3cccc(S(C)(=O)=O)c3)cc2)c(Cc2cc(Cl)ccc2F)n1 [Example 474, 2-(2-(5-chloro-2-fluorobenzyl)-1-(3′-(methylsulfonyl)biphenyl-4-yl)-1H-imidazol-4-yl)propan-2-ol] | < 1000 nM
